Assay results: ChEMBL document CHEMBL3351607, “Derivatives of imidazotriazine and pyrrolotriazine C-nucleosides as potential new anti-HCV agents” (Bioorg Med Chem Lett, 2014)

How the values were obtained:
[1] = Cytotoxicity against human HuH7 cells; assay type: cell-based, Huh-7
[2] = tested on: Hepatitis C virus; test: Antiviral activity against Hepatitis C virus genotype 1b in human HuH7 cells assessed as inhibition of viral replication after 72 hrs by luciferase reporter assay; assay type: functional, cell-based, Hepacivirus hominis; conditions: Huh-7, 72 h
[3] = Therapeutic index, ratio of CC50 for human HuH7 cells to EC50 for Hepatitis C virus genotype 1b in human HuH7 cells; assay type: cell-based, Huh-7; conditions: read-out: Ratio CC50/EC50

Structure (SMILES)	CC50 [1]	EC50 [2]	selectivity ratio [3]
C[C@@]1(O)[C@H](O)[C@@H](CO)O[C@H]1c1cnc2c(N)ncnn12	26 µM		
C[C@@]1(O)[C@H](O)[C@@H](CO)O[C@H]1c1cc(-c2ncco2)c2c(N)ncnn12	35.7 µM	1.8 µM	
C[C@@]1(O)[C@H](O)[C@@H](CO)O[C@H]1c1ccc2c(N)ncnn12	> 100 µM		
C[C@@]1(O)[C@H](O)[C@@H](CO)O[C@H]1c1cc(Cl)c2c(N)ncnn12	6.5 µM	0.26 µM	
C[C@@]1(O)[C@H](O)[C@@H](CO)O[C@H]1c1cc(C(N)=O)c2c(N)ncnn12	0.37 µM	0.0062 µM	
C[C@@]1(O)[C@H](O)[C@@H](CO)O[C@H]1c1cc(C#N)c2c(N)ncnn12	22.1 µM	0.99 µM	
C[C@@]1(O)[C@H](O)[C@@H](CO)O[C@H]1c1ccc2c(N)nc(N)nn12	> 100 µM	> 50 µM	
C[C@@]1(O)[C@H](O)[C@@H](CO)O[C@H]1c1cc(-c2ncc[nH]2)c2c(N)ncnn12	27.1 µM	0.69 µM	
C[C@@]1(O)[C@H](O)[C@@H](CO)O[C@H]1c1cnc2c(N)nc(Cl)nn12	> 100 µM	> 50 µM	
C[C@@]1(O)[C@H](O)[C@@H](CO)O[C@H]1c1cnc2c(N)nc(N)nn12	> 100 µM	> 50 µM	
C[C@@]1(O)[C@H](O)[C@@H](CO)O[C@H]1c1c(F)cc2c(N)ncnn12	> 100 µM	> 50 µM	
C[C@@]1(O)[C@H](O)[C@@H](CO)O[C@H]1c1cnc2c(N)nc(F)nn12	> 100 µM	> 50 µM	
C#Cc1cc([C@@H]2O[C@H](CO)[C@@H](O)[C@@]2(C)O)n2ncnc(N)c12	0.93 µM	0.17 µM	
C[C@@]1(O)[C@H](O)[C@@H](CO)O[C@H]1c1cc(F)c2c(N)ncnn12	> 100 µM	3.1 µM	> 30
